Measured values taken from US20100092539A1, “Fluorinated GHRH Antagonists” (priority 2008, published 2010).

Tested on: PC-3 human hormone-independent prostate cancer
Assay: Effect of treatment with GH-RH antagonists on PC-3 human prostate cancer xenografts in nude mice
Format: in vivo
Settings: PC-3 xenografts s.c. in male nude mice, 2 ug/day s.c., single daily injections for 28
Procedure: Male nude mice were implanted s.c. with 3 mm3 pieces of PC-3 human hormone-independent prostate cancer tissue on both flanks. When tumors reached a volume of approximately 50 mm3, the mice were divided into 14 experimental groups with 8 to 10 animals in each group and received single daily injections for 28 as follows: 1. Control (vehicle solution); 2. P-12211 (2 μg/day s.c.); 3. P-12307 (2 μg/day s.c.); 4. P-12317 (2 μg/day s.c.); 5. P-12408 (2 μg/day s.c.); 6. P-12409 (2 μg/day s.c.); 7. P-12457 (2 μg/day s.c.); 8. P-12473 (2 μg/day s.c.); 9. P-12479 (2 μg/day s.c.); 10. P-12600 (2 μg/day s.c.); 11. P-12601 (2 μg/day s.c.); 12. P-12602 (2 μg/day s.c.); 13. P-12603 (2 μg/day s.c.); and 14. P-12610 (2 μg/day s.c.).
Effect of Treatment with GH-RH Antagonists on PC-3 Human Prostate Cancer Xenografts in Nude Mice

In the case of “[PhAc^0-Tyr^1, D-Arg^2, Cpa^6, Ala^8, Har^9, Fpa5^10, His^11, Orn^12, Abu^15, His^20, Orn^21, Nle^27, D-Arg^28, Har^29, Ada^30]hGH-RH(1-30)NH2 [Peptide P-12610]”, the “Tumor Growth after 4 weeks (%)” value (control 2137.62) is reported as 474.98% and the “Tumor growth inhibition after 4 weeks (%)” value (versus control) is reported as 77.78%.
